Measurements taken from patent US20250214977A1, “STAT6 INHIBITORS AND USES THEREOF” (Kymera Therapeutics, Inc., priority 2024, published 2025).

System: Phosphorylation of STAT6 in human PBMC (CD19+ B cells)
Assay: Phosphorylated STAT6 (pSTAT6) flow cytometry assay in human PBMC, IL-4 stimulated
Type: cell-based
Conditions: compound 1 hour, 1 ng/ml IL-4 for 15 minutes, read-out: STAT6 IL4 pSTAT6 assay in PBMC: Average IC50
Protocol: Example 2. Phosphorylated STAT6 (pSTAT6) Flow Cytometry Assay in Human PBMC
Phosphorylation of STAT6 in human PBMC was quantitatively measured using flow cytometry technology. Human PBMC were seeded in 96-well plates with a density of 0.3 to 0.5 million cells per well in 100 μl fresh media. Compounds were then added to the assay plates with a final top concentration of up to 30 μM in a 1:3 dilution series with total of 9 doses. The assay plates were incubated for 1 hour at 37° C. under 5% CO2. The cells were then stimulated with 1 ng/ml of IL-4 (R&D Systems, Cat #6507-IL) for 15 minutes, followed by fixation for 30 minutes at 4° C. Cells were spun down at 350 g for 5 minutes. The supernatant was removed and cells were washed once with FACS buffer. Cells were permeabilized with 90% MeOH/H2O for 30 minutes at 4° C., followed by one wash with FACS buffer. Non-specific binding were blocked with human Fc for 1 hour at 4 C, followed by one wash with FACS buffer. AF488 conjugated pSTAT6 antibody (BD Biosciences, Cat #612600, 1:100 dilution) and PE conjugated CD19 antibody (BD Biosciences, Cat #341103, 1:50 dilution) diluted in 100 μl FACS buffer was added to each well with overnight incubation at 4° C. Cells were then washed once with FACS buffer and resuspended in 200 μl of FACS buffer for flow cytometry to quantify pSTAT6 in CD19+ B cells. The data was analyzed by GraphPad Prism and the dose dependent pSTAT6 inhibition was fit using the four-parameter inhibitor vs. response nonlinear regression.

CN(C)C(=O)c1cc2ccc(C3=CCCN(C(=O)CCc4ccccc4C#N)C3)cc2[nH]1 [Example I-64] and CN(C)C(=O)c1cc2ccc(C3=CCCN(C(=O)CCc4cccc(C#N)c4)C3)cc2[nH]1 [Example I-63] cannot be ordered by IC50: greater than 100 µM for the first, greater than 100 µM for the second.

Compared with CN(C)C(=O)c1cc2ccc(C3=CCCN(C(=O)c4ccc(-c5ccc(Cl)cc5)cc4)C3)cc2[nH]1 [Example I-83], CN(C)C(=O)c1cc2ccc(C3=CCCN(C(=O)c4ccccc4C(=O)c4ccc(F)cc4)C3)cc2[nH]1 [Example I-108] is higher in IC50: 10 to 100 µM for the first, greater than 100 µM for the second. The first is the more potent here.

COC(=O)[C@H]1CC[C@H](c2ccc3oc(C(=O)N(C)C)cc3c2)CN1C(=O)CCn1ccnn1 (single isomer, unassigned) [Example I-152] and COC(=O)[C@H]1CC[C@@H](c2ccc3oc(C(=O)N(C)C)cc3c2)CN1C(=O)CCn1ccnn1 (single isomer, unassigned) [Example I-151] cannot be ordered by IC50: greater than 100 µM for the first, greater than 100 µM for the second.

First: CN(C)C(=O)c1cc2c(-c3ccc(O)cc3)cc(C3=CCCN(C(=O)CCn4ccnn4)C3)cc2[nH]1 [Example I-22]
Second: CNc1ccc(-c2cc(C3=CCCN(C(=O)CCn4ccnn4)C3)cc3[nH]c(C(=O)N(C)C)cc23)c(OC)c1 [Example I-117]
The IC50 of the first is higher: 0.1 to 1 µM for the first, less than 0.1 µM for the second.

CN(C)C(=O)c1cc2cc(C3=CCCN(C(=O)Cc4n[nH]c5ccccc45)C3)ccc2o1 [Example I-302] and CN(C)C(=O)c1cc2cc(C3=CCCN(C(=O)Cc4nc5ccccc5[nH]4)C3)ccc2o1 [Example I-245] cannot be ordered by IC50: greater than 100 µM for the first, greater than 100 µM for the second.

CNC(=O)c1cc2cc(C3=CCCN(C(=O)CCn4ccnn4)C3)ccc2o1 [Example I-236] and CN(C)C(=O)c1cc2cc(C3=CCCN(C(=O)CCn4ccnn4)C3)ccc2[nH]1 [Example I-308] cannot be ordered by IC50: greater than 100 µM for the first, greater than 100 µM for the second.

CC(=O)NC(Cc1cccc(F)c1)C(=O)N1CCC=C(c2ccc3cc(C(=O)N(C)C)[nH]c3c2)C1 (centres unmarked) [Example I-82] and CN(C)C(=O)c1cc2ccc(C3=CCCN(C(=O)C(O)Cc4ccccc4)C3)cc2[nH]1 (centres unmarked) [Example I-51] fall in the same range of IC50: 10 to 100 µM for the first, 10 to 100 µM for the second.

First: CN(C)C(=O)c1cc2ccc(C3=CCCN(C(=O)COc4ccc(C(=O)O)cc4)C3)cc2[nH]1 [Example I-67]
Second: CN(C)C(=O)c1cc2ccc(C3=CCCN(C(=O)CCC(=O)O)C3)cc2[nH]1 [Example I-112]
The IC50 of the first is lower: 10 to 100 µM for the first, greater than 100 µM for the second. The first is the more potent here.

CN(C)C(=O)c1cn2cc(C3=CCCN(C(=O)CCn4ccnn4)C3)ccc2n1 [Example I-241] and CN(C)C(=O)c1cc2ccc(C3=CCCN(C(=O)CCn4ccnn4)C3)cn2n1 [Example I-298] cannot be ordered by IC50: greater than 100 µM for the first, greater than 100 µM for the second.

CCC(=O)N1Cc2ccccc2CC1C(=O)N1CCC=C(c2ccc3oc(C(=O)N(C)C)cc3c2)C1 (centres unmarked) [Example I-188] and CC(=O)N1Cc2ccccc2CC1C(=O)N1CCC=C(c2ccc3oc(C(=O)N(C)C)cc3c2)C1 (centres unmarked) [Example I-182] cannot be ordered by IC50: greater than 100 µM for the first, greater than 100 µM for the second.

First: COc1ccc(Cn2cc(CC(=O)N3CCC=C(c4ccc5cc(C(=O)N(C)C)[nH]c5c4)C3)cn2)cc1 [Example I-136]
Second: CN(C)C(=O)c1cc2ccc(C3=CCCN(C(=O)C4CN(Cc5ccccc5)CCO4)C3)cc2[nH]1 (centres unmarked) [Example I-100]
The IC50 of the first is higher: greater than 100 µM for the first, 10 to 100 µM for the second. The second is the more potent here.

CN(C)C(=O)c1cc2ccc(C3=CCCN(C(=O)CC(C)(O)C(F)(F)F)C3)cc2[nH]1 (centres unmarked) [Example I-46] and CN(C)C(=O)c1cc2ccc(C3=CCCN(C(=O)C4CC(O)C4)C3)cc2[nH]1 (centres unmarked) [Example I-28] fall in the same range of IC50: 10 to 100 µM for the first, 10 to 100 µM for the second.

COc1ccc(CC(=O)N2CCC=C(c3ccc4oc(C(=O)N(C)C)cc4c3)C2)cc1C#N [Example I-256] and CN(C)C(=O)c1cc2cc(C3=CCCN(C(=O)Cc4coc5ccccc45)C3)ccc2o1 [Example I-271] cannot be ordered by IC50: greater than 100 µM for the first, greater than 100 µM for the second.

First: CN(C)C(=O)c1cc2ccc(C3=CCCN(C(=O)c4ccccc4CSc4ccccc4)C3)cc2[nH]1 [Example I-92]
Second: Cc1ccccc1OCc1ccccc1C(=O)N1CCC=C(c2ccc3cc(C(=O)N(C)C)[nH]c3c2)C1 [Example I-106]
The IC50 of the first is higher: 10 to 100 µM for the first, 1 to 10 µM for the second. The second is the more potent here.

CN(C)C(=O)c1cc2ccc(C3=CCCN(C(=O)[C@@H]4C[C@H]4c4ccn(C)n4)C3)cc2[nH]1 [Example I-11] and CN(C)C(=O)c1cc2ccc(C3=CCCN(C(=O)C4CC4c4ccn(C)n4)C3)cc2[nH]1 (centres unmarked) [Example I-321] fall in the same range of IC50: 10 to 100 µM for the first, 10 to 100 µM for the second.

CN(C)C(=O)c1cc2cc(C3=CCCN(C(=O)C4Cc5c(cccc5-n5cccn5)CN4C=O)C3)ccc2o1 (centres unmarked) [Example I-172] and CC(=O)N1Cc2ccccc2CC1C(=O)N1CCC=C(c2ccc3oc(C(=O)N(C)C)cc3c2)C1 (centres unmarked) [Example I-170] cannot be ordered by IC50: greater than 100 µM for the first, greater than 100 µM for the second.

Compared with CN(C)C(=O)c1cc2c(F)c(C3=CCCN(C(=O)CCn4ccnn4)C3)ccc2o1 [Example I-323], CN(C)C(=O)c1nc2ccc(C3=CCCN(C(=O)CCn4ccnn4)C3)cc2o1 [Example I-226] is higher in IC50: 0.1 to 1 µM for the first, greater than 100 µM for the second. The first is the more potent here.

First: CN(C)C(=O)c1cc2ccc(C3=CCCN(C(=O)CCCn4c(=O)[nH]c5ccccc54)C3)cc2[nH]1 [Example I-85]
Second: CCC[C@@H](C(=O)N1CCC=C(c2ccc3cc(C(=O)N(C)C)[nH]c3c2)C1)N1Cc2ccccc2C1=O [Example I-96]
The IC50 of the first is higher: greater than 100 µM for the first, 10 to 100 µM for the second.

CN(C)C(=O)c1cc2cc(C3=CCCN(C(=O)Cc4nc5ccccc5s4)C3)ccc2o1 [Example I-221] and CN(C)C(=O)c1cc2cc(C3=CCCN(C(=O)Cn4nnc5ccccc54)C3)ccc2o1 [Example I-254] cannot be ordered by IC50: greater than 100 µM for the first, greater than 100 µM for the second.

CN(C)C(=O)c1cc2cc(C3=CCCN(C(=O)[C@H](N)Cn4ccnn4)C3)ccc2o1 (single isomer, unassigned) [Example I-174] and CCNC(Cn1ccnn1)C(=O)N1CCC=C(c2ccc3oc(C(=O)N(C)C)cc3c2)C1 (centres unmarked) [Example I-153] cannot be ordered by IC50: greater than 100 µM for the first, greater than 100 µM for the second.

CC1CCCN(C(=O)c2cc3ccc(C4=CCCN(C(=O)CCn5ccnn5)C4)cc3[nH]2)C1 (centres unmarked) [Example I-127] and CN(C)C(=O)c1cc2ccc(C3=CCCN(C(=O)CCn4ccnn4)C3)nc2[nH]1 [Example I-196] fall in the same range of IC50: 10 to 100 µM for the first, 10 to 100 µM for the second.

CN(C)C(=O)c1cc2ccc(C3=CCCN(C(=O)CN(C)S(=O)(=O)c4ccccc4)C3)cc2[nH]1 [Example I-75] and CO[C@@H](C(=O)N1CCC=C(c2ccc3cc(C(=O)N(C)C)[nH]c3c2)C1)c1ccccc1 [Example I-50] fall in the same range of IC50: 10 to 100 µM for the first, 10 to 100 µM for the second.

CN(C)C(=O)c1nc2cc(C3=CCCN(C(=O)CCn4ccnn4)C3)ccc2s1 [Example I-192] and CN(C)C(=O)c1cc2cc(C3=CCCN(C(=O)CCc4ncns4)C3)ccc2o1 [Example I-165] cannot be ordered by IC50: greater than 100 µM for the first, greater than 100 µM for the second.

CN(C)C(=O)c1cc2cc(C3=CCCN(C(=O)CCc4ccc5c(c4)OCCO5)C3)ccc2o1 [Example I-280] and CN(C)C(=O)c1cc2cc(C3=CCCN(C(=O)CCc4ccc5ccccc5c4)C3)ccc2o1 [Example I-266] cannot be ordered by IC50: greater than 100 µM for the first, greater than 100 µM for the second.

CN(C)C(=O)c1cc2cc(C3=CCCN(C(=O)Cc4cnc5ccccn45)C3)ccc2o1 [Example I-276] and CN(C)C(=O)c1cc2cc(C3=CCCN(C(=O)Cc4c[nH]c5ncccc45)C3)ccc2o1 [Example I-309] cannot be ordered by IC50: greater than 100 µM for the first, greater than 100 µM for the second.

CN(C)C(=O)c1cc2cc(C3=CCCN(C(=O)C4Cc5ccccc5CN4C)C3)ccc2o1 (centres unmarked) [Example I-285] and CN(C)C(=O)c1cc2cc(C3=CCCN(C(=O)C4c5ccccc5CCN4C)C3)ccc2o1 (centres unmarked) [Example I-208] cannot be ordered by IC50: greater than 100 µM for the first, greater than 100 µM for the second.

First: CN(C)C(=O)c1cc2ccc(C3=CCCN(C(=O)CCc4ccno4)C3)cc2[nH]1 [Example I-19]
Second: CN(C)C(=O)c1cc2ccc(C3=CCCN(C(=O)c4c[nH]nc4I)C3)cc2[nH]1 [Example I-34]
The IC50 of the first is higher: greater than 100 µM for the first, 10 to 100 µM for the second.

CN(C)C(=O)c1cc2ccc(C3=CCCN(C(=O)C4CCN(c5ncccc5C(=O)O)CC4)C3)cc2[nH]1 [Example I-109] and CN(C)C(=O)c1cc2ccc(C3=CCCN(C(=O)C4CCC4C(=O)O)C3)cc2[nH]1 (centres unmarked) [Example I-39] fall in the same range of IC50: 10 to 100 µM for the first, 10 to 100 µM for the second.

First: CN(C)C(=O)c1cc2ccc(C3=CCCN(C(=O)C(CC4CC4)N4Cc5ccccc5C4=O)C3)cc2[nH]1 (centres unmarked) [Example I-104]
Second: CN(C)C(=O)c1cc2ccc(C3=CCCN(C(=O)C4(c5ccccc5)CCC(=O)NC4)C3)cc2[nH]1 (centres unmarked) [Example I-87]
The IC50 of the first is higher: greater than 100 µM for the first, 10 to 100 µM for the second. The second is the more potent here.

CN(C)C(=O)c1cc2ccc(C3=CCCN(C(=O)c4ccc5c(c4)OCC(=O)N5)C3)cc2[nH]1 [Example I-132] and CN(C)C(=O)c1cc2ccc(C3=CCCN(C(=O)c4cc(C#N)ccc4Br)C3)cc2[nH]1 [Example I-144] cannot be ordered by IC50: greater than 100 µM for the first, greater than 100 µM for the second.

CN(C)C(=O)c1cc2cc(C3=CCCN(C(=O)CCn4nnc5ccccc54)C3)ccc2o1 [Example I-217] and CN(C)C(=O)c1cc2cc(C3=CCCN(C(=O)CCc4nncc5ccccc45)C3)ccc2o1 [Example I-168] cannot be ordered by IC50: greater than 100 µM for the first, greater than 100 µM for the second.

First: CN(C)C(=O)c1cc2ccc(C3=CCCN(C(=O)c4cc5occc5n4-c4ccccc4)C3)cc2[nH]1 [Example I-102]
Second: CN(C)C(=O)c1cc2ccc(C3=CCCN(C(=O)[C@@H]4C[C@H](c5ccccc5)CN4)C3)cc2[nH]1 [Example I-76]
The IC50 of the first is lower: 10 to 100 µM for the first, greater than 100 µM for the second.

Compound CN(C)C(=O)c1cc2ccc(C3=CCCN(C(=O)C4(O)CCN(Cc5ccccc5)CC4)C3)cc2[nH]1 [Example I-98] has an IC50 of 10 to 100 µM.
